In patent US20220395438A1, “TOOTH WHITENING COMPOSITION” (Universitat Autonoma de Barcelona, priority 2019, published 2022):

Assay: Tooth whitening treatments at 20 minutes according to 2^2 factorial design (colorimetric ΔE)
Design: species or system bovine
Conditions: 8 specimens per treatment

With `O=S([O-])S(=O)(=O)[O-].[Na+].[Na+]` [Comparative 2, sodium metabisulfite] as the compound, how does the “increase in the whiteness of the tooth, ΔE ± standard deviation” value (from here on “increase … ΔE ± standard deviation”) (3 minutes of treatment) read?
The value was 7.3 ± 1.5.

What about the “increase … ΔE ± standard deviation” value (3 minutes of treatment, listed as MBS) of the same compound?
Its value is 7.3.

What about the “increase … ΔE ± standard deviation” value (6 minutes of treatment) of the same compound?
The value was 12.9 ± 0.8.

What about the “increase … ΔE ± standard deviation” value (9 minutes of treatment) of the same compound?
The value was 14.7 ± 1.8.

What about the “increase … ΔE ± standard deviation” value (14 minutes of treatment) of the same compound?
Its value is 14.8 ± 1.7.

What about the “increase … ΔE ± standard deviation” value (20 minutes of treatment) of the same compound?
Its value is 16.2 ± 1.7.
